The target in this assay is wheat germ agglutinin (WGA). Kind of assay: QCM biosensor kinetics, lectin over immobilized amino-GlcNAc derivative on polydopamine chip, […] fit. It counts as binding.

The Kd is the equilibrium constant for the complex coming apart. Lower therefore signals higher affinity. For `CC(=O)N[C@H]1C(O)O[C@H](CO)[C@@H](O)[C@@H]1O` (stereo partly shown) [N-Acetylglucosamine], binding was put at a Kd of 47.2 nM.

The values above are taken from PMC6401853, “Fabrication of Carbohydrate Chips Based on Polydopamine for Real-Time Determination of Carbohydrate–Lectin Interactions by QCM Biosensor” (Polymers, 2018).
